Data from the supplement of paper PMC10733146.

Assays:
Experiment in all cases: viability relative to DMSO control (fraction); higher = less drug effect (more viable cells)
Conditions in all cases: 48 h
[1] = tested on: primary AML patient cells (S021)
Outline: (§1)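 Viability is given as CellTiter-Glo luminescence relative to the median of 16 inner DMSO wells. Fresh or cryopreserved primary mononuclear tumour cells from blood, bone marrow (both Ficoll-isolated) or processed lymph node were plated at 4 × 10^4 cells per well in 384-well plates against five pre-plated compound concentrations, one well each. Incubation lasted 48 h at 37 °C and 5% CO2 in RPMI-1640 with penicillin/streptomycin, L-glutamine and human serum.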

[2] = tested on: primary AML patient cells (S060)
Outline: as §1

[3] = tested on: primary AML patient cells (S009)
Outline: as §1

[4] = tested on: primary AML patient cells (S081)
Outline: as §1

[5] = tested on: primary AML patient cells (S089)
Outline: as §1

[6] = tested on: primary AML patient cells (S071)
Outline: as §1

[7] = tested on: primary AML patient cells (S017)
Outline: as §1

[8] = tested on: primary MCL patient cells (S068)
Outline: as §1

[9] = tested on: primary AML patient cells (S025)
Outline: as §1

[10] = tested on: primary AML patient cells (S002)
Outline: as §1

[11] = tested on: primary AML patient cells (S072)
Outline: as §1

[12] = tested on: primary B-PLL patient cells (S016)
Outline: as §1

[13] = tested on: primary BL patient cells (S005)
Outline: as §1

[14] = tested on: primary DLBCL patient cells (S082)
Outline: as §1

[15] = tested on: primary MCL patient cells (S053)
Outline: as §1

[16] = tested on: primary AML patient cells (S055)
Outline: as §1

[17] = tested on: primary AML patient cells (S037)
Outline: as §1

[18] = tested on: primary AML patient cells (S091)
Outline: as §1

[19] = tested on: primary T-PLL patient cells (S008)
Outline: as §1

[20] = tested on: primary CLL patient cells (S043)
Outline: as §1

## COc1cccc2c1C(=O)c1c(O)c3c(c(O)c1C2=O)C[C@@](O)(C(=O)CO)C[C@@H]3O[C@H]1C[C@H](N)[C@H](O)[C@H](C)O1 [Doxorubicin]
[1]; 0.0016 µM
  viability: 0.994
[1]; 0.008 µM
  viability: 1.01
[1]; 0.04 µM
  viability: 0.929
[1]; 0.2 µM
  viability: 0.438
[1]; 1 µM
  viability: 0.182
[2]; 0.0016 µM
  viability: 1.03
[2]; 0.008 µM
  viability: 1.05
[2]; 0.04 µM
  viability: 1.04
[2]; 0.2 µM
  viability: 1.16
[2]; 1 µM
  viability: 0.124
[3]; 0.0016 µM
  viability: 1.07
[3]; 0.008 µM
  viability: 0.994
[3]; 0.04 µM
  viability: 0.934
[3]; 0.2 µM
  viability: 0.644
[3]; 1 µM
  viability: 0.221
[4]; 0.0016 µM
  viability: 1.05
[4]; 0.008 µM
  viability: 1.09
[4]; 0.04 µM
  viability: 1.12
[4]; 0.2 µM
  viability: 1.18
[4]; 1 µM
  viability: 0.0358
[5]; 0.0016 µM
  viability: 1.01
[5]; 0.008 µM
  viability: 1
[5]; 0.04 µM
  viability: 1.01
[5]; 0.2 µM
  viability: 0.665
[5]; 1 µM
  viability: 0.187
[6]; 0.0016 µM
  viability: 0.978
[6]; 0.008 µM
  viability: 0.745
[6]; 0.04 µM
  viability: 0.27
[6]; 0.2 µM
  viability: 0.116
[6]; 1 µM
  viability: 0.0761
[7]; 0.0016 µM
  viability: 1.2
[7]; 0.008 µM
  viability: 1.1
[7]; 0.04 µM
  viability: 1.07
[7]; 0.2 µM
  viability: 0.96
[7]; 1 µM
  viability: 0.146
[8]; 0.0016 µM
  viability: 0.995
[8]; 0.008 µM
  viability: 0.978
[8]; 0.04 µM
  viability: 0.761
[8]; 0.2 µM
  viability: 0.307
[8]; 1 µM
  viability: 0.0522
[9]; 0.0016 µM
  viability: 0.99
[9]; 0.008 µM
  viability: 1.01
[9]; 0.04 µM
  viability: 0.848
[9]; 0.2 µM
  viability: 0.501
[9]; 1 µM
  viability: 0.119
[10]; 0.0016 µM
  viability: 1.06
[10]; 0.008 µM
  viability: 1.08
[10]; 0.04 µM
  viability: 0.695
[10]; 0.2 µM
  viability: 0.401
[10]; 1 µM
  viability: 0.33
[11]; 0.0016 µM
  viability: 1.05
[11]; 0.008 µM
  viability: 1.01
[11]; 0.04 µM
  viability: 0.947
[11]; 0.2 µM
  viability: 0.704
[11]; 1 µM
  viability: 0.162
[12]; 0.0016 µM
  viability: 1.09
[12]; 0.008 µM
  viability: 0.847
[12]; 0.04 µM
  viability: 0.175
[12]; 0.2 µM
  viability: 0.0427
[12]; 1 µM
  viability: 0.0239
[13]; 0.0016 µM
  viability: 1.03
[13]; 0.008 µM
  viability: 1.03
[13]; 0.04 µM
  viability: 0.968
[13]; 0.2 µM
  viability: 0.875
[13]; 1 µM
  viability: 0.838
[14]; 0.0016 µM
  viability: 1.11
[14]; 0.008 µM
  viability: 1.1
[14]; 0.04 µM
  viability: 0.945
[14]; 0.2 µM
  viability: 0.878
[14]; 1 µM
  viability: 0.0843
[15]; 0.0016 µM
  viability: 0.959
[15]; 0.008 µM
  viability: 0.756
[15]; 0.04 µM
  viability: 0.448
[15]; 0.2 µM
  viability: 0.216
[15]; 1 µM
  viability: 0.299
[16]; 0.0016 µM
  viability: 1.02
[16]; 0.008 µM
  viability: 0.99
[16]; 0.04 µM
  viability: 1.02
[16]; 0.2 µM
  viability: 0.947
[16]; 1 µM
  viability: 0.487
[17]; 0.0016 µM
  viability: 1.06
[17]; 0.008 µM
  viability: 1.05
[17]; 0.04 µM
  viability: 0.979
[17]; 0.2 µM
  viability: 0.737
[17]; 1 µM
  viability: 0.447
[18]; 0.0016 µM
  viability: 0.983
[18]; 0.008 µM
  viability: 0.905
[18]; 0.04 µM
  viability: 0.737
[18]; 0.2 µM
  viability: 0.637
[18]; 1 µM
  viability: 0.499
[19]; 0.0016 µM
  viability: 1.04
[19]; 0.008 µM
  viability: 1.15
[19]; 0.04 µM
  viability: 0.972
[19]; 0.2 µM
  viability: 0.958
[19]; 1 µM
  viability: 0.607
[20]; 0.0016 µM
  viability: 1.03
[20]; 0.008 µM
  viability: 0.956
[20]; 0.04 µM
  viability: 0.97
[20]; 0.2 µM
  viability: 0.615
[20]; 1 µM
  viability: 0.0447

## N#CC[C@H](C1CCCC1)n1cc(-c2ncnc3[nH]ccc23)cn1 [Ruxolitinib]
[1]; 0.024 µM
  viability: 0.919
[1]; 0.12 µM
  viability: 0.801
[1]; 0.6 µM
  viability: 0.844
[1]; 3 µM
  viability: 0.779
[1]; 15 µM
  viability: 0.723
[2]; 0.024 µM
  viability: 0.992
[2]; 0.12 µM
  viability: 0.932
[2]; 0.6 µM
  viability: 0.924
[2]; 3 µM
  viability: 0.919
[2]; 15 µM
  viability: 0.896
[3]; 0.024 µM
  viability: 1.09
[3]; 0.12 µM
  viability: 1.01
[3]; 0.6 µM
  viability: 0.98
[3]; 3 µM
  viability: 1.02
[3]; 15 µM
  viability: 0.928
[4]; 0.024 µM
  viability: 1.02
[4]; 0.12 µM
  viability: 0.9
[4]; 0.6 µM
  viability: 0.951
[4]; 3 µM
  viability: 0.854
[4]; 15 µM
  viability: 0.817
[5]; 0.024 µM
  viability: 0.658
[5]; 0.12 µM
  viability: 0.804
[5]; 0.6 µM
  viability: 0.603
[5]; 3 µM
  viability: 0.686
[5]; 15 µM
  viability: 0.704
[6]; 0.024 µM
  viability: 1.01
[6]; 0.12 µM
  viability: 0.988
[6]; 0.6 µM
  viability: 0.956
[6]; 3 µM
  viability: 0.944
[6]; 15 µM
  viability: 0.744
[7]; 0.024 µM
  viability: 1.05
[7]; 0.12 µM
  viability: 1.03
[7]; 0.6 µM
  viability: 1.09
[7]; 3 µM
  viability: 1
[7]; 15 µM
  viability: 0.907
[8]; 0.024 µM
  viability: 0.978
[8]; 0.12 µM
  viability: 0.987
[8]; 0.6 µM
  viability: 0.989
[8]; 3 µM
  viability: 1.05
[8]; 15 µM
  viability: 0.947
[9]; 0.024 µM
  viability: 0.954
[9]; 0.12 µM
  viability: 0.962
[9]; 0.6 µM
  viability: 1.04
[9]; 3 µM
  viability: 1.02
[9]; 15 µM
  viability: 1.06
[10]; 0.024 µM
  viability: 0.982
[10]; 0.12 µM
  viability: 0.788
[10]; 0.6 µM
  viability: 0.851
[10]; 3 µM
  viability: 0.707
[10]; 15 µM
  viability: 0.646
[11]; 0.024 µM
  viability: 1.04
[11]; 0.12 µM
  viability: 0.925
[11]; 0.6 µM
  viability: 0.873
[11]; 3 µM
  viability: 0.913
[11]; 15 µM
  viability: 0.883
[12]; 0.024 µM
  viability: 1.16
[12]; 0.12 µM
  viability: 0.98
[12]; 0.6 µM
  viability: 1.08
[12]; 3 µM
  viability: 0.965
[12]; 15 µM
  viability: 0.894
[13]; 0.024 µM
  viability: 1.01
[13]; 0.12 µM
  viability: 1.18
[13]; 0.6 µM
  viability: 0.974
[13]; 3 µM
  viability: 1.15
[13]; 15 µM
  viability: 1.03
[14]; 0.024 µM
  viability: 1.01
[14]; 0.12 µM
  viability: 0.904
[14]; 0.6 µM
  viability: 1.03
[14]; 3 µM
  viability: 1.04
[14]; 15 µM
  viability: 0.913
[15]; 0.024 µM
  viability: 1.03
[15]; 0.12 µM
  viability: 0.928
[15]; 0.6 µM
  viability: 1.02
[15]; 3 µM
  viability: 1.03
[15]; 15 µM
  viability: 0.831
[16]; 0.024 µM
  viability: 1.01
[16]; 0.12 µM
  viability: 0.961
[16]; 0.6 µM
  viability: 1
[16]; 3 µM
  viability: 1.03
[16]; 15 µM
  viability: 1.05
[17]; 0.024 µM
  viability: 1.02
[17]; 0.12 µM
  viability: 0.956
[17]; 0.6 µM
  viability: 0.989
[17]; 3 µM
  viability: 0.97
[17]; 15 µM
  viability: 0.965
[18]; 0.024 µM
  viability: 0.915
[18]; 0.12 µM
  viability: 1.09
[18]; 0.6 µM
  viability: 0.889
[18]; 3 µM
  viability: 1.12
[18]; 15 µM
  viability: 1.28
[19]; 0.024 µM
  viability: 0.966
[19]; 0.12 µM
  viability: 1.01
[19]; 0.6 µM
  viability: 0.97
[19]; 3 µM
  viability: 1.09
[19]; 15 µM
  viability: 0.952
[20]; 0.024 µM
  viability: 0.915
[20]; 0.12 µM
  viability: 1.05
[20]; 0.6 µM
  viability: 0.938
[20]; 3 µM
  viability: 1.05
[20]; 15 µM
  viability: 0.966
